US20210261621A1, “Preparation of Dilipid Polymixins and Use Thereof as Antimicrobial Adjuvants” (priority 2018, published 2021)
Values after ≈ are worked out from the molar mass of the structure shown. Values joined by “and” are separate entries in the source; they are usually repeats but may differ in a detail not shown here. Identical values can stand only once. Like-named read-outs stand apart in the source and are kept apart here. Positions of bridges follow the written chain, without caps; N, C: chain ends. Non-standard residues stand in square brackets, D forms with d. Residues, ends and D or L forms follow the SMILES beside them. *: point of attachment. Acetyl(1-adamantyl) = O=C(CC12CC3CC(CC(C3)C1)C2)*; Dab = NCC[C@H](N)C(=O)O

Tests used:
[1] = test system: E. coli CANWARD-2011 97615; format: cell-based, Escherichia coli
How it was run: (§1)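 MIC by CLSI broth microdilution. Inoculum ~5×10^5 CFU/mL in MHB (0.5 McFarland, then 1:50); 2-fold compound series; 37° C., 18 h.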

[2] = test system: P. aeruginosa PAO1; set-up: MICDrug / MICDrug in combo / MIC of adjuvant in combo: unit not given beside the values
[3] = test system: P. aeruginosa CANWARD-2011 96846; format: cell-based, Pseudomonas aeruginosa
How it was run: as §1

[4] = test system: pig erythrocytes; settings: red cells of pig, 1 h, 512
Protocol: The ability of the compounds to lyse eukaryotic red blood cells was measured by the amount of hemoglobin released upon incubation with pig erythrocytes, following a published protocol [30]. Briefly, fresh pig blood (generously provided by Dr. Richard Hodges, Director of Animal Care and Veterinary Services of the University of Manitoba) drawn from a pig's antecubital vein was centrifuged at 1000 g for 5 min at 4° C., washed with phosphate-buffered saline (PBS) three times, and re-suspended in the same buffer, consecutively. Compounds at study were 2-fold serially diluted in PBS on a 96-well plate and mixed with equal volumes of erythrocyte solution. Post 1 h incubation at 37° C., the intact cells were pelleted by centrifugation at 1000 g for 5 min at 4° C. Resulting supernatant was then transferred to a new 96-well plate. The hemoglobin released was then measured via an EMax Plus microplate reader (Molecular Devices, USA) at 570 nm wavelength. Erythrocytes in PBS with or without 0.1% Triton X-100 were used as positive or negative control, respectively.

**Q.** Which MIC [1] does the source give for CC(C)C[C@@H]1NC(=O)[C@@H](Cc2ccccc2)NC(=O)[C@H](CCN)NC(=O)[C@@H](NC(=O)[C@H](CCN)NC(=O)[C@@H](NC(=O)[C@H](CCNC(=O)CC23CC4CC(CC(C4)C2)C3)NC(=O)CC23CC4CC(CC(C4)C2)C3)[C@@H](C)O)CCNC(=O)[C@H]([C@@H](C)O)NC(=O)[C@H](CCN)NC(=O)[C@H](CCN)NC1=O [Compound 4, Diadamantane Acetic Acid (Di-Adamantyl) Polymyxin] ({Acetyl(1-adamantyl)}-[Dab](Acetyl(1-adamantyl))T[Dab][Dab][Dab][dF]L[Dab][Dab]T; lactam 4-C) here?
**A.** 64 µg/mL (≈ 45.2 µM)

**Q.** What about the “MIC of adjuvant alone (MIC1, MIC2, MIC3, MIC4, MIC5, MICPMBN)” value ([2]; adjuvant alone, one value per checkerboard, in µg/mL) of the same compound?
**A.** 16 and 8

**Q.** And the Interpretation ([2]; combination with Aztreonam)?
**A.** Additive (An FIC index of ≤0.5, 0.5<x≤4, or >4 denotes for synergistic, additive or antagonistic interaction, respectively)

**Q.** What about the Interpretation ([2]; combination with Ceftazidime) of the same compound?
**A.** Additive (An FIC index of ≤0.5, 0.5<x≤4, or >4 denotes for synergistic, additive or antagonistic interaction, respectively)

**Q.** And the Interpretation ([2]; combination with Chloramphenicol)?
**A.** Additive (An FIC index of ≤0.5, 0.5<x≤4, or >4 denotes for synergistic, additive or antagonistic interaction, respectively)

**Q.** And the Interpretation ([2]; combination with Ciprofloxacin)?
**A.** Additive (An FIC index of ≤0.5, 0.5<x≤4, or >4 denotes for synergistic, additive or antagonistic interaction, respectively)

**Q.** And the Interpretation ([2]; combination with Clindamycin)?
**A.** Additive (An FIC index of ≤0.5, 0.5<x≤4, or >4 denotes for synergistic, additive or antagonistic interaction, respectively)

**Q.** What about the Interpretation ([2]; combination with Doripenem) of the same compound?
**A.** Additive (An FIC index of ≤0.5, 0.5<x≤4, or >4 denotes for synergistic, additive or antagonistic interaction, respectively)

**Q.** And the Interpretation ([2]; combination with Doxycycline)?
**A.** Additive (An FIC index of ≤0.5, 0.5<x≤4, or >4 denotes for synergistic, additive or antagonistic interaction, respectively)

**Q.** And the Interpretation ([2]; combination with Fosfomycin)?
**A.** Additive (An FIC index of ≤0.5, 0.5<x≤4, or >4 denotes for synergistic, additive or antagonistic interaction, respectively)

**Q.** What about the Interpretation ([2]; combination with Gentamicin) of the same compound?
**A.** Additive (An FIC index of ≤0.5, 0.5<x≤4, or >4 denotes for synergistic, additive or antagonistic interaction, respectively)

**Q.** And the Interpretation ([2]; combination with Linezolid)?
**A.** Additive (An FIC index of ≤0.5, 0.5<x≤4, or >4 denotes for synergistic, additive or antagonistic interaction, respectively)

**Q.** And the Interpretation ([2]; combination with Meropenem)?
**A.** Additive (An FIC index of ≤0.5, 0.5<x≤4, or >4 denotes for synergistic, additive or antagonistic interaction, respectively)

**Q.** What about the Interpretation ([2]; combination with Minocycline) of the same compound?
**A.** Additive (An FIC index of ≤0.5, 0.5<x≤4, or >4 denotes for synergistic, additive or antagonistic interaction, respectively)

**Q.** And the Interpretation ([2]; combination with Moxifloxacin)?
**A.** Additive (An FIC index of ≤0.5, 0.5<x≤4, or >4 denotes for synergistic, additive or antagonistic interaction, respectively)

**Q.** And the Interpretation ([2]; combination with Novobiocin)?
**A.** Additive (An FIC index of ≤0.5, 0.5<x≤4, or >4 denotes for synergistic, additive or antagonistic interaction, respectively)

**Q.** And the Interpretation ([2]; combination with Piperacillin)?
**A.** Additive (An FIC index of ≤0.5, 0.5<x≤4, or >4 denotes for synergistic, additive or antagonistic interaction, respectively)

**Q.** And the Interpretation ([2]; combination with Pleuromutilin)?
**A.** Additive (An FIC index of ≤0.5, 0.5<x≤4, or >4 denotes for synergistic, additive or antagonistic interaction, respectively)

**Q.** And the Interpretation ([2]; combination with Rifampicin)?
**A.** Additive (An FIC index of ≤0.5, 0.5<x≤4, or >4 denotes for synergistic, additive or antagonistic interaction, respectively)

**Q.** And the Interpretation ([2]; combination with Streptomycin)?
**A.** Additive (An FIC index of ≤0.5, 0.5<x≤4, or >4 denotes for synergistic, additive or antagonistic interaction, respectively)

**Q.** What about the Interpretation ([2]; combination with Tobramycin) of the same compound?
**A.** Additive (An FIC index of ≤0.5, 0.5<x≤4, or >4 denotes for synergistic, additive or antagonistic interaction, respectively)

**Q.** What about the Interpretation ([2]; combination with Trimethoprim) of the same compound?
**A.** Additive (An FIC index of ≤0.5, 0.5<x≤4, or >4 denotes for synergistic, additive or antagonistic interaction, respectively)

**Q.** What about the Interpretation ([2]; combination with Vancomycin) of the same compound?
**A.** Additive (An FIC index of ≤0.5, 0.5<x≤4, or >4 denotes for synergistic, additive or antagonistic interaction, respectively)

**Q.** And the “MIC of adjuvant in combo” value ([2]; in combination with Aztreonam)?
**A.** (8)

**Q.** What about the “MIC of adjuvant in combo” value ([2]; in combination with Ceftazidime) of the same compound?
**A.** (8)

**Q.** And the “MIC of adjuvant in combo” value ([2]; in combination with Chloramphenicol)?
**A.** (4)

**Q.** What about the “MIC of adjuvant in combo” value ([2]; in combination with Ciprofloxacin) of the same compound?
**A.** (0.25)

**Q.** And the “MIC of adjuvant in combo” value ([2]; in combination with Clindamycin)?
**A.** (4)

**Q.** And the “MIC of adjuvant in combo” value ([2]; in combination with Doripenem)?
**A.** (8)

**Q.** And the “MIC of adjuvant in combo” value ([2]; in combination with Doxycycline)?
**A.** (4)

**Q.** And the “MIC of adjuvant in combo” value ([2]; in combination with Fosfomycin)?
**A.** (4)

**Q.** What about the “MIC of adjuvant in combo” value ([2]; in combination with Gentamicin) of the same compound?
**A.** (0.25)

**Q.** What about the “MIC of adjuvant in combo” value ([2]; in combination with Linezolid) of the same compound?
**A.** (8)

**Q.** What about the “MIC of adjuvant in combo” value ([2]; in combination with Meropenem) of the same compound?
**A.** (4)

**Q.** What about the “MIC of adjuvant in combo” value ([2]; in combination with Minocycline) of the same compound?
**A.** (4)

**Q.** What about the “MIC of adjuvant in combo” value ([2]; in combination with Moxifloxacin) of the same compound?
**A.** (4)

**Q.** And the “MIC of adjuvant in combo” value ([2]; in combination with Novobiocin)?
**A.** (4)

**Q.** What about the “MIC of adjuvant in combo” value ([2]; in combination with Piperacillin) of the same compound?
**A.** (0.25)

**Q.** And the “MIC of adjuvant in combo” value ([2]; in combination with Pleuromutilin)?
**A.** (4)

**Q.** What about the “MIC of adjuvant in combo” value ([2]; in combination with Rifampicin) of the same compound?
**A.** (4)

**Q.** What about the “MIC of adjuvant in combo” value ([2]; in combination with Streptomycin) of the same compound?
**A.** (0.25)

**Q.** What about the “MIC of adjuvant in combo” value ([2]; in combination with Tobramycin) of the same compound?
**A.** (0.25)

**Q.** What about the “MIC of adjuvant in combo” value ([2]; in combination with Trimethoprim) of the same compound?
**A.** (8)

**Q.** What about the “MIC of adjuvant in combo” value ([2]; in combination with Vancomycin) of the same compound?
**A.** (4)

**Q.** And the “adjuvant activity (potentiation of the panel of 21 antibiotics)” value ([2]; result in words)?
**A.** did not enhance the activity of any antibiotics

**Q.** And the MIC [3]?
**A.** 32 µg/mL (≈ 22.6 µM)

**Q.** What about the “% Hemolysis at 512 μg/mL of polymyxin” value [4] of the same compound?
**A.** 3.2 ± 0.4%
